How the values were obtained:
[1] = tested on: NCI-N87 stomach cancer cell line; assay: Cell growth inhibition assay, NCI-N87 (CellTiter-Glo); type: cell-based; settings: Homo sapiens; NCI-N87, 5,000 cells/well, 96 hours
Method: The inhibitory effects of the compounds of the present invention against the growth of cancer cells were evaluated as shown below. The cancer cell lines including prostate cancer cell lines (LNCaP, DU-145), stomach cancer cell line (NCI-N87), and breast cancer cell lines (MDA-MB-468) were cultured under the protocol provided by each supplier. A medium supplemented with 10 ng/mL of IL-6 was used for LNCaP, a prostate cancer cell line, when treated with a drug. Each type of cells to be used in experiments was sub-cultured in a 96-well plate by counting the exact number of cells using Tali™ Image-based Cytometer (Life Technologies). In a 96-well plate, DU-145 was employed with 3,000 cells/well; NCI-N87 was employed with 5,000 cells/well; and LNCaP and MDA-MB-468 were employed with 10,000 cells/well. The cells were treated with the compounds listed in Examples which were diluted in various concentrations. Upon completion of the compounds treatment, LNCaP, DU-145, NCI-N87 cells were cultured at 37° C. under 5% CO2 for 96 hours, and MDA-MB-468 cells were cultured at 37° C. in air for 96 hours. Subsequently, the cells were observed under microscope and drug precipitation and particular findings were investigated and recorded. And then, the 96-well plate was placed at room temperature for 30 minutes, added with 20 pt/well of CellTiter-Glo solution (Cat No. G7573, Promega) and shaken for 10 minutes, followed by being subjected to the measurement using PHERAstar™ microplate reader (BMG LABTECH) according to the supplier's general luminometer protocol. Wells where only culture liquid added without cell plating were used as a negative control, whereas wells where culture liquid containing 0.1% DMSO instead of the compounds listed in Examples were used as a positive control.

[2] = tested on: STAT3; assay: STAT3 reporter gene assay (luciferase), LNCaP stable cell line pSTAT3-TA-luc, IL-6 stimulation; type: cell-based, human; settings: Homo sapiens
Method: 1-1) Experiment on the Inhibition of STAT3 Activity
A human prostate cancer cell line (LNCaP stable cell line; plasmid pSTAT3-TA-luc), which contains a stably operating STAT3 promoter, was cultured in RPMI1640 medium (Cat No. 11875, Life Technologies) containing 10% fetal bovine serum (FBS) (Cat No. SH30396, Thermo Scientific) and 150 μg/mL G-418 solution (Cat No. 04 727 894 001, Roche). The reporter gene assay using LNCaP stable cell line was performed in RPMI1640 medium containing 3% DCC-FBS without G-418 solution. LNCaP stable cells were plated in two (2) white 96-well plates with 30,000 cells/50 μL in each well. The cells were cultured at 37° C., under 5% CO2 for 24 hours, and then treated with the compounds listed in Examples which were diluted in various concentrations. Subsequently, IL-6 was added to each well with a final concentration of 10 ng/mL. Upon completion of the treatment with the compounds and IL-6, the cells were cultured at 37° C., under 5% CO2 for 24 hours. The plates were observed under microscope and drug precipitation and particular findings were investigated and recorded.
(§1) The luciferase assay and the cell viability assay were performed respectively with one of the two plates. For the luciferase assay, the liquid media in the 96-well plate was removed, and then, 20 μL, of passive cell lysis buffer was added to each well. After shaking the plate for 30 minutes, luciferase activities of each well were measured in a PHERAstar™ microplate reader (BMG LABTECH) using a luciferase assay system (Cat No. E1501, Promega). For the cell viability assay, the 96-well plate was placed at room temperature for 30 minutes, added with 20 μL/well of CellTiter-Glo solution (Cat No. G7573, Promega), and shaken for 10 minutes in order to measure cytotoxicity caused by the compounds listed in Examples with a PHERAstar™ microplate reader (BMG LABTECH). Wells without 0.1% DMSO and stimulation were used as a negative control and wells with 0.1% DMSO and stimulation were used as a positive control.
(§2) The results of evaluation on the inhibitory effect of the compounds listed in the Examples on the dimerization of STAT3 and STAT1 obtained via the STAT3 and STAT1 reporter gene assays are shown in Table 9 below.

[3] = tested on: STAT1; assay: STAT1 reporter gene assay (luciferase), U2OS stable cell line pGL4-STAT1-TA-luc, IFN-γ stimulation; type: cell-based, human; settings: Homo sapiens, IFN-γ 50 ng/mL, 8 hours, read-out: IC50 (μM) pSTAT1
Method: 1-2) Experiment on the Inhibition of STAT1 Activity
A human osteosarcoma cell line (U2OS stable cell line; pGL4-STAT1-TA-luc), which contains a stably operating STAT1 promoter, was cultured in McCoy 5′A medium (Cat No. 16600, Life Technologies) containing 10% FBS (Cat No. SH30396, Thermo Scientific) and 1000 μg/mL G418 solution (Cat No. 04 727 894 001, Roche). The reporter gene assay using U2OS stable cell line was performed in McCoy 5′A medium containing 10% FBS without G-418 solution. U2OS stable cells were plated in two (2) white 96-well plates with 25,000 cells/50 pt in each well. The cells were cultured at 37° C., under 5% CO2 for 24 hours, and then treated with the compounds listed in Examples which were diluted in various concentrations. Subsequently, IFN-γ was added to each well with a final concentration of 50 ng/mL. Upon completion of the treatment with the compounds and IFN-γ, the cells were cultured at 37° C., under 5% CO2 for 8 hours. The plates were observed under microscope and drug precipitation and particular findings were investigated and recorded.
as §1, with “of” for “of the”, “μL” for “μL,”
as §2

SMILES | IC50 [1] | IC50 [2] | IC50 [3]
Cc1csc(C(C)(C)c2cc(Cl)cc(NC(=O)c3cc4cc(C(C)(C)S(C)(=O)=O)ccc4s3)c2)c1 [Example 32, N-(3-chloro-5-(2-(4-methylthiophen-2-yl)propan-2-yl)phenyl)-5-(2-(methylsulfonyl)propan-2-yl)benzo[b]thiophene-2-carboxamide] | 0.076 µM | 0.01 µM | > 50 µM
CC(C)(c1ccc2sc(C(=N)Nc3cc(Cl)cc(Oc4ccc(Cl)cc4)c3)cc2c1)S(C)(=O)=O [Example 103, N-(3-chloro-5-(4-chlorophenoxy)phenyl)-5-(2-(methylsulfonyl)propan-2-yl)benzo[b]thiophene-2-carboximidamide 2,2,2-trifluoroacetate] | 1.3 µM | 0.18 µM | > 50 µM
O=C(Nc1cc(Cl)nc(Oc2ccc(Cl)cc2)c1)c1cc2cc(C3CCCS3(=O)=O)ccc2s1 (centres unmarked) [Example 73, N-(2-chloro-6-(4-chlorophenoxy)pyridin-4-yl)-5-(1,1-dioxidotetrahydrothiophen-2-yl)benzo[b]thiophene-2-carboxamide] | 0.45 µM | 0.13 µM | > 50 µM
CC(C)(c1ccc2sc(C(=O)Nc3cc(F)nc(Oc4ccc(Cl)cc4)c3)cc2c1)S(C)(=O)=O [Example 77, N-(2-(4-chlorophenoxy)-6-fluoropyridin-4-yl)-5-(2-(methylsulfonyl)propan-2-yl)benzo[b]thiophene-2-carboxamide] | 0.052 µM | 0.1 µM | > 50 µM
CC(C)(c1cc(Cl)cc(NC(=O)c2cc3cc(C(C)(C)S(C)(=O)=O)ccc3s2)c1)c1cc(OCC(F)F)cc(OC(F)(F)F)c1 [Example 13, N-(3-chloro-5-(2-(3-(2,2-difluoroethoxy)-5-(trifluoromethoxy)phenyl)propan-2-yl)phenyl)-5-(2-(methylsulfonyl)propan-2-yl)benzo[b]thiophene-2-carboxamide] | 0.028 µM | 0.01 µM | > 50 µM
CC(C)(c1ccc2sc(C(=O)Nc3cc(Cl)nc(OC4CCN5CCCC5C4)c3)cc2c1)S(C)(=O)=O (centres unmarked) [Example 102, N-(2-chloro-6-((octahydroindolizin-7-yl)oxy)pyridin-4-yl)-5-(2-(methylsulfonyl)propan-2-yl)benzo[b]thiophene-2-carboxamide] |  | 2.1 µM | 14.5 µM
COc1cc(NC(=O)c2cc3cc(C(C)(C)S(C)(=O)=O)ccc3s2)cc(C(C)(C)c2cc(OC)cc(OC(F)(F)F)c2)c1 [Example 6, N-(3-methoxy-5-(2-(3-methoxy-5-(trifluoromethoxy)phenyl)propan-2-yl)phenyl)-5-(2-(methylsulfonyl)propan-2-yl)benzo[b]thiophene-2-carboxamide] |  | 0.019 µM | > 50 µM
CC(C)(c1ccc2sc(C(=O)Nc3cc(Cl)nc(Oc4ccc(Cl)cc4)n3)cc2c1)S(C)(=O)=O [Example 76, N-(6-chloro-2-(4-chlorophenoxy)pyrimidin-4-yl)-5-(2-(methylsulfonyl)propan-2-yl)benzo[b]thiophene-2-carboxamide] |  | 0.39 µM | 3.1 µM
CC(C)(c1ccc(Cl)cc1)c1cc(Cl)cc(NC(=O)c2cc3cc(C(C)(C)S(C)(=O)=O)ncc3s2)c1 [Example 26, N-(3-chloro-5-(2-(4-chlorophenyl)propan-2-yl)phenyl)-5-(2-(methylsulfonyl)propan-2-yl)thieno[2,3-c]pyridine-2-carboxamide] |  | 0.065 µM | > 50 µM
CC(C)(c1cc(Br)cc(NC(=O)c2cc3cc(C(C)(C)S(C)(=O)=O)ccc3s2)c1)c1cc(OC(F)(F)F)cc(OC(F)(F)C(F)F)c1 [Example 4, N-(3-bromo-5-(2-(3-(1,1,2,2-tetrafluoroethoxy)-5-(trifluoromethoxy)phenyl)propan-2-yl)phenyl)-5-(2-(methylsulfonyl)propan-2-yl)benzo[b]thiophene-2-carboxamide] |  | 0.0091 µM | > 50 µM
CC(C)(c1ccc2sc(C(=O)Nc3cc(Cl)cc(Oc4ccc(Cl)nc4)c3)cc2c1)S(C)(=O)=O [Example 60, N-(3-chloro-5-((6-chloropyridin-3-yl)oxy)phenyl)-5-(2-(methylsulfonyl)propan-2-yl)benzo[b]thiophene-2-carboxamide] |  | 0.12 µM | > 50 µM
COc1ccc(C(C)(C)c2cc(Cl)cc(NC(=O)c3cc4cc(C(C)(C)S(C)(=O)=O)ccc4s3)c2)s1 [Example 29, N-(3-chloro-5-(2-(5-methoxythiophen-2-yl)propan-2-yl)phenyl)-5-(2-(methylsulfonyl)propan-2-yl)benzo[b]thiophene-2-carboxamide] |  | 0.0041 µM | > 50 µM
COc1cc(OC(F)(F)F)cc(C(C)(C)c2cc(NC(=O)c3cc4cc(C(C)(C)S(C)(=O)=O)ccc4s3)cc(Cl)n2)c1 [Example 90, N-(2-chloro-6-(2-(3-methoxy-5-(trifluoromethoxy)phenyl)propan-2-yl)pyridin-4-yl)-5-(2-(methylsulfonyl)propan-2-yl)benzo[b]thiophene-2-carboxamide] |  | 0.011 µM | > 50 µM
COc1sccc1C(C)(C)c1cc(Cl)cc(NC(=O)c2cc3cc(C(C)(C)S(C)(=O)=O)ccc3s2)c1 [Example 30, N-(3-chloro-5-(2-(2-methoxythiophen-3-yl)propan-2-yl)phenyl)-5-(2-(methylsulfonyl)propan-2-yl)benzo[b]thiophene-2-carboxamide] |  | 0.0013 µM | > 50 µM
CC(C)(c1ccc(Cl)cc1)c1cc(Cl)cc(NC(=O)c2cc3ccc(C(C)(C)S(C)(=O)=O)cc3[nH]2)c1 [Example 35, N-(3-chloro-5-(2-(4-chlorophenyl)propan-2-yl)phenyl)-6-(2-(methylsulfonyl)propan-2-yl)-1H-indole-2-carboxamide] |  | 0.1 µM | > 50 µM

Source: patent US10023591B2, “Heterocyclic derivatives and use thereof” (C&C RESEARCH LABORATORIES, priority 2014, dated 2018)
